Laboratory results published in patent US4537717A.
≈ marks a conversion by molar mass, not a printed value.

Experiments:
[1] = tested on: Streptococcus Group 9960; assay type: cell-based, Streptococcus pneumoniae; conditions: agar dilution; 2, 5, 17, 22 median of three tests; paired values two experiments
[2] = tested on: Streptococcus pyogenes C203; assay type: cell-based; conditions: agar dilution; 2, 5, 17, 22 median of three tests; paired values two experiments
[3] = tested on: Streptococcus pneumoniae Park I; assay type: cell-based; conditions: agar dilution; 2, 5, 17, 22 median of three tests; paired values two experiments
[4] = tested on: Staphylococcus aureus V41; assay type: cell-based; conditions: penicillin-resistant strain; agar dilution; 2, 5, 17, 22 median of three tests; paired values two experiments
[5] = tested on: Staphylococcus aureus X400; assay type: cell-based; conditions: methicillin-resistant strain; agar dilution; 2, 5, 17, 22 median of three tests; paired values two experiments
[6] = tested on: Staphylococcus aureus X1.1; assay type: cell-based; conditions: agar dilution; 2, 5, 17, 22 median of three tests; paired values two experiments
[7] = tested on: Micrococcus luteus ATCC 9341; assay: agar-plate disc-diffusion test; assay type: cell-based; conditions: suspended in water at 1 mg/ml; 7 mm disc; 24-48 hours at 25-37° C.
[8] = tested on: Streptococcus pneumoniae Group D X66; assay type: cell-based; conditions: agar dilution; 2, 5, 17, 22 median of three tests; paired values two experiments
[9] = toxicity test (LD50); conditions: mouse, in vivo, iv, mice; administered intravenously
[10] = tested on: Staphylococcus aureus ATCC 6738P; assay: agar-plate disc-diffusion test; assay type: cell-based; conditions: suspended in water at 1 mg/ml; 7 mm disc; 24-48 hours at 25-37° C.
[11] = tested on: Staphylococcus aureus; assay: in vivo activity against experimental bacterial infection (ED50); conditions: mice; two doses subcutaneously; dose protecting fifty percent of test animals
[12] = tested on: Staphylococcus epidermidis EPI1; assay type: cell-based; conditions: agar dilution; 2, 5, 17, 22 median of three tests; paired values two experiments
[13] = tested on: Bacillus subtilis ATCC 6633; assay: agar-plate disc-diffusion test; conditions: 7 mm disc, 24-48 hours at 25-37° C.; for Size of Zone of Inhibition (mm) B. subtilis ATCC 6633, grown on minimal nutrient agar: 1 mg/ml; for Size of Zone of Inhibition (mm) Bacillus subtilis ATCC 6633: suspended in water at 1 mg/ml
Protocol: ^a Compounds were suspended in water at a concentration of 1 mg/ml; a
7 mm disc was dipped into the suspension and then placed on the agar
surface; incubation: 24-48 hours at 25-37° C.
^b Grown on minimal nutrient agar

[14] = tested on: Staphylococcus epidermidis EPI2; assay type: cell-based; conditions: agar dilution; 2, 5, 17, 22 median of three tests; paired values two experiments
[15] = tested on: Streptococcus pyogenes; assay: in vivo activity against experimental bacterial infection (ED50); conditions: mice, dose protecting fifty percent of test animals; for ED50 Streptococcus pyogenes Oral: two doses orally; for ED50 Streptococcus pyogenes Subcutaneous: two doses subcutaneously

Row | SMILES | MIC Streptococcus pneumoniae Group 9960 [1] | MIC Streptococcus pyogenes C203 [2] | MIC Streptococcus pneumoniae Park I [3] | MIC Staphylococcus aureus V41 [4] | MIC Staphylococcus aureus X400 [5] | MIC Staphylococcus aureus X1.1 [6] | Size of Zone of Inhibition (mm) Micrococcus luteus ATCC 9341 [7] | MIC Streptococcus pneumoniae Group D X66 [8] | LD50 [9] | Size of Zone of Inhibition (mm) Staphylococcus aureus ATCC 6738P [10] | ED50 Staphylococcus aureus Subcutaneous [11] | MIC Staphylococcus epidermidis EPI1 [12] | Size of Zone of Inhibition (mm) B. subtilis ATCC 6633, grown on minimal nutrient agar [13] | Size of Zone of Inhibition (mm) Bacillus subtilis ATCC 6633 [13] | MIC Staphylococcus epidermidis EPI2 [14] | ED50 Streptococcus pyogenes Oral [15] | ED50 Streptococcus pyogenes Subcutaneous [15]
1 | CCCCCCC(=O)N[C@@H](Cc1c[nH]c2ccccc12)C(=O)N[C@@H](CC(N)=O)C(=O)N[C@@H](CC(=O)O)C(=O)N[C@@H]1C(=O)NCC(=O)N[C@@H](CCCN)C(=O)N[C@@H](CC(=O)O)C(=O)N[C@H](C)C(=O)N[C@@H](CC(=O)O)C(=O)NCC(=O)N[C@H](CO)C(=O)N[C@@H]([C@H](C)CC(=O)O)C(=O)N[C@@H](CC(=O)c2ccccc2N)C(=O)O[C@@H]1C [Compound 1] | 128 µg/mL (≈ 81.1 µM) | 2 µg/mL (≈ 1.27 µM) | 8 µg/mL (≈ 5.07 µM) | 8 µg/mL (≈ 5.07 µM) | 8 µg/mL (≈ 5.07 µM) | 8 µg/mL (≈ 5.07 µM) | 21 mm | 128 µg/mL (≈ 81.1 µM) | > 600 mg/kg | 17 mm | 2.65 mg/kg × 2 | 16 µg/mL (≈ 10.1 µM) | 16 mm | 15 mm | 8 µg/mL (≈ 5.07 µM) | – | –
2 | CCCCC=CCCCCCCCC(=O)N[C@@H](Cc1c[nH]c2ccccc12)C(=O)N[C@@H](CC(N)=O)C(=O)N[C@@H](CC(=O)O)C(=O)N[C@@H]1C(=O)NCC(=O)N[C@@H](CCCN)C(=O)N[C@@H](CC(=O)O)C(=O)N[C@H](C)C(=O)N[C@@H](CC(=O)O)C(=O)NCC(=O)N[C@H](CO)C(=O)N[C@@H]([C@H](C)CC(=O)O)C(=O)N[C@@H](CC(=O)c2ccccc2N)C(=O)O[C@@H]1C [Compound 12] | 1 µg/mL (≈ 0.597 µM) | 0.5 µg/mL (≈ 0.299 µM) | 0.5 µg/mL (≈ 0.299 µM) | 1 µg/mL (≈ 0.597 µM) | 2 µg/mL (≈ 1.19 µM) | 1 µg/mL (≈ 0.597 µM) | 20 mm | 2 µg/mL (≈ 1.19 µM) | 450 mg/kg | 22 mm | 3.28 mg/kg × 2 | 2 µg/mL (≈ 1.19 µM) | 30 mm | 19 mm | 2 µg/mL (≈ 1.19 µM) | 75 mg/kg × 2 | 0.134 mg/kg × 2
3 | CCCCCCCCCCCCCCCC(=O)N[C@@H](Cc1c[nH]c2ccccc12)C(=O)N[C@@H](CC(N)=O)C(=O)N[C@@H](CC(=O)O)C(=O)N[C@@H]1C(=O)NCC(=O)N[C@@H](CCCN)C(=O)N[C@@H](CC(=O)O)C(=O)N[C@H](C)C(=O)N[C@@H](CC(=O)O)C(=O)NCC(=O)N[C@H](CO)C(=O)N[C@@H]([C@H](C)CC(=O)O)C(=O)N[C@@H](CC(=O)c2ccccc2N)C(=O)O[C@@H]1C [Compound 10] | 0.25 µg/mL (≈ 0.147 µM) | 1 µg/mL (≈ 0.587 µM) | 0.06 µg/mL (≈ 0.0352 µM) | 1 µg/mL (≈ 0.587 µM) | 2 µg/mL (≈ 1.17 µM) | 1 µg/mL (≈ 0.587 µM) | 17 mm | 2 µg/mL (≈ 1.17 µM) | 50 mg/kg | 19 mm | > 1.1 mg/kg × 2 | 2 µg/mL (≈ 1.17 µM) | 23 mm | 17 mm | 2 µg/mL (≈ 1.17 µM) | > 200 mg/kg × 2 | 0.18 mg/kg × 2
4 | CCCCCCCCCCCCCCC(=O)N[C@@H](Cc1c[nH]c2ccccc12)C(=O)N[C@@H](CC(N)=O)C(=O)N[C@@H](CC(=O)O)C(=O)N[C@@H]1C(=O)NCC(=O)N[C@@H](CCCN)C(=O)N[C@@H](CC(=O)O)C(=O)N[C@H](C)C(=O)N[C@@H](CC(=O)O)C(=O)NCC(=O)N[C@H](CO)C(=O)N[C@@H]([C@H](C)CC(=O)O)C(=O)N[C@@H](CC(=O)c2ccccc2N)C(=O)O[C@@H]1C [Compound 9] | 0.25 µg/mL (≈ 0.148 µM) | 1 µg/mL (≈ 0.591 µM) | 0.06 µg/mL (≈ 0.0355 µM) | 1 µg/mL (≈ 0.591 µM) | 2 µg/mL (≈ 1.18 µM) | 1 µg/mL (≈ 0.591 µM) | 19 mm | 2 µg/mL (≈ 1.18 µM) | 56.2 mg/kg | 20 mm | 8.3 mg/kg × 2 | 2 µg/mL (≈ 1.18 µM) | 24 mm | 19 mm | 4 µg/mL (≈ 2.37 µM) | > 200 mg/kg × 2 | –
5 | C=CCCCCCCCCC(=O)N[C@@H](Cc1c[nH]c2ccccc12)C(=O)N[C@@H](CC(N)=O)C(=O)N[C@@H](CC(=O)O)C(=O)N[C@@H]1C(=O)NCC(=O)N[C@@H](CCCN)C(=O)N[C@@H](CC(=O)O)C(=O)N[C@H](C)C(=O)N[C@@H](CC(=O)O)C(=O)NCC(=O)N[C@H](CO)C(=O)N[C@@H]([C@H](C)CC(=O)O)C(=O)N[C@@H](CC(=O)c2ccccc2N)C(=O)O[C@@H]1C [Compound 11] | 0.5 µg/mL (≈ 0.306 µM) | 0.5 µg/mL (≈ 0.306 µM) | 0.25 µg/mL (≈ 0.153 µM) | 0.5 µg/mL (≈ 0.306 µM) | 0.5 µg/mL (≈ 0.306 µM) | 0.5 µg/mL (≈ 0.306 µM) | 20 mm | 1 µg/mL (≈ 0.612 µM) | ≥ 500 mg/kg | 21 mm | 0.93 mg/kg × 2 | 1 µg/mL (≈ 0.612 µM) | 25 mm | 17 mm | 1 µg/mL (≈ 0.612 µM) | 138 mg/kg × 2 | 0.068 mg/kg × 2
6 | CCCCCCCCCCC(=O)N[C@@H](Cc1c[nH]c2ccccc12)C(=O)N[C@@H](CC(N)=O)C(=O)N[C@@H](CC(=O)O)C(=O)N[C@@H]1C(=O)NCC(=O)N[C@@H](CCCN)C(=O)N[C@@H](CC(=O)O)C(=O)N[C@H](C)C(=O)N[C@@H](CC(=O)O)C(=O)NCC(=O)N[C@H](CO)C(=O)N[C@@H]([C@H](C)CC(=O)O)C(=O)N[C@@H](CC(=O)c2ccccc2N)C(=O)O[C@@H]1C [Compound 5] | 0.5 µg/mL (≈ 0.306 µM) | 0.125 µg/mL (≈ 0.0765 µM) | 0.25 µg/mL (≈ 0.153 µM) | 0.25 µg/mL (≈ 0.153 µM) | 0.5 µg/mL (≈ 0.306 µM) | 0.25 µg/mL (≈ 0.153 µM) | 21 mm | 2 µg/mL (≈ 1.22 µM) | > 600 mg/kg | 19 mm | 0.37 mg/kg × 2 | 0.5 µg/mL (≈ 0.306 µM) | 21 mm | 19 mm | 0.5 µg/mL (≈ 0.306 µM) | 138 mg/kg × 2 | 0.13 mg/kg × 2
7 | CCCCCCCCC(=O)N[C@@H](Cc1c[nH]c2ccccc12)C(=O)N[C@@H](CC(N)=O)C(=O)N[C@@H](CC(=O)O)C(=O)N[C@@H]1C(=O)NCC(=O)N[C@@H](CCCN)C(=O)N[C@@H](CC(=O)O)C(=O)N[C@H](C)C(=O)N[C@@H](CC(=O)O)C(=O)NCC(=O)N[C@H](CO)C(=O)N[C@@H]([C@H](C)CC(=O)O)C(=O)N[C@@H](CC(=O)c2ccccc2N)C(=O)O[C@@H]1C [Compound 3] | 8 µg/mL (≈ 4.98 µM) | 0.25 µg/mL (≈ 0.156 µM) | 2 µg/mL (≈ 1.24 µM) | 2 µg/mL (≈ 1.24 µM) | 4 µg/mL (≈ 2.49 µM) | 2 µg/mL (≈ 1.24 µM) | 18 mm | 32 µg/mL (≈ 19.9 µM) | > 600 mg/kg | 20 mm | 0.5 mg/kg × 2 | 4 µg/mL (≈ 2.49 µM) | 27 mm | 16 mm | 2 µg/mL (≈ 1.24 µM) | – | –
